Eleven molecules from patent publication US12186377B2, “Modulation of oxidative stress and amino acid metabolism for the treatment or prevention of diseases and disorders” (NEW YORK UNIVERSITY, priority 2019, dated 2025) can be followed below.

What all share (assay type): cell-based, mouse
In experiment [1] the test system is wildtype and Keap1 mutant Kras^G12D/+;p53^−/− lung adenocarcinoma cell lines. The experiment in a line: Cell proliferation assay (crystal violet), drug or amino acid deprived media. Conditions: for sensitivity of Keap1 wildtype cells to NEAA depletion under oxidant treatment: wildtype cells treated with oxidative stress agents; for rescue of cell growth under serine deprived conditions by supplementation: 0.5 mM NAC, 50 μM Trolox, 3 mM formate, 16 μM thymidine, FIG. 7A. As to the method:
For cell proliferation assays conducted under different drug or media conditions as indicated, cells growing in DMEM were trypsinized, counted and plated into 12 well plate dishes (BD/Falcon) in 1 mL of RPMI media. […] For deprivation experiments, cells were washed with PBS and media was replaced with 1 mL of complete RPMI or RPMI lacking indicated amino acid and supplemented with 10% dialyzed FBS and cells were re-treated with indicated drugs. RPMI was prepared from a powder mix without amino acids (US Biological) according to manufacturer's instructions. All other amino acids besides those indicated were added to the RPMI mixture in the same concentrations present in RPMI-1640 formulation (Cellgro, Corning). Proliferation experiments were carried out for 5 days post drug treatment and collected by staining. Cells were stained with a 0.5% crystal violet (Fisher) solution in 20% methanol. Plates were then washed, dried, and crystal violet was eluted in 400 μL of 10% acetic acid.

The test system of experiment [2] is KPKJ Vector (Keap1 KO) cells transduced with sgG6pd and sgPGD. Nature of the experiment: Colony formation assay, metabolite rescue of G6PD KO / PGD KO cells. Conditions: FIG. 18. The text has this:
Colony formation assay of KPKJ Vector (Keap1 KO) cells transduced with sgTom, sgG6pd and sgPGD, and rescued with several metabolites.

Experiment [3] has as its system wildtype vs Keap1 mutant cells. The experiment in a line: GC/MS analysis of polar metabolites and stable isotope tracing in cells.
Experimental: For analysis of cells, 1×10^5 cells were seeded in 1 mL of RPMI-1640 in 12 well plates. […] Media was then replaced with fresh RPMI lacking serine or asparagine where indicated and supplement with 10% FBS. For tracing experiments media contained 11 mM [U^13C]-D-glucose, 2 mM [U^13C]-L-glutamine, 2 mM [α^15N]-L-glutamine, or 285 μM [U^13C]-L-serine (Cambridge Isotope Laboratory). Cells were treated with 250 nM CB-839 and cultured for 1-3 hours. Cells were washed 2× in ice cold saline and then collected by scraping in 250 μL of 80% (v/v) of ice cold methanol containing 1.4 μg/mL norvaline (Sigma Aldrich). Samples were vortexed for 10 min at 4° C. and then centrifuged at max speed for 5 minutes. Supernatant was transferred to fresh tubes and then dried in a speed vac. For analysis of mouse plasma, whole blood was collected at the time of sacrifice by a retro-orbital bleed with heparin coated capillary tubes (Fisher) into EDTA containing microcentrifuge tubes. Whole blood was centrifuged for 5 minutes at 1600 g. Cleared plasma was transferred to fresh tubes and 4 μL of plasma was then aliquoted and used for analysis. 80% (v/v) methanol containing 1.4 μg/mL norvaline was added to plasma and samples were then dried in a speed vac. […] After derivatization, samples were analyzed by GC-MS using an HP-5MS column (Agilent Technologies) in an Agilent Intuvo gas chromatograph coupled to an Agilent 5997B mass spectrometer. […]
The MS system operated under electron impact ionization at 70 eV and the MS source and quadrupole were held at 230° C. and 150° C. respectively the detector was used in scanning mode, and the scanned ion range was 10-650 m/z. Mass isotopomer distributions were determined by integrating the appropriate ion fragments for each metabolite (Lewis et al., 2014, Molecular cell 55, 253-263) using MATLAB (Mathworks) and an algorithm adapted from Fernandez and colleagues (Fernandez et al., 1996, Journal of mass spectrometry: JMS 31, 255-262) that corrects for natural abundance.
The subject of a further experiment is KP or KPK cells. The experiment in a line: Cell viability with exogenous heme/hemin after Alas1 knock-down/out. The text has this:
FIG. 36A depicts the cell viability of KP or KPK cells with guide RNAs against Alas1 or control in the presence of increasing amounts of Heme/Hemin.
FIG. 37A depicts a western blot validation of control or Alas1 targeting shRNAs in KP/KPK cells. FIG. 37B depicts the relative viability of KP/KPK cells in response to doxycycline inducible shRNA knockdown of Alas1.

For the next experiment, the system named is KPK cells. Nature of the experiment: Western blot of Alas1 and Hmox1 with exogenous heme/hemin. Conditions: increasing amounts of exogenous heme/hemin, FIG. 36B. (In general: In western blotting, separated proteins are transferred to a membrane and probed.)

Each structure is given as a SMILES string. “Also recorded” adds a separate entry of the source. Counter-ions that a name gives are not always drawn.

On to `CC(=O)OC[C@H]1O[C@@H]([S-])[C@H](OC(C)=O)[C@@H](OC(C)=O)[C@@H]1OC(C)=O.CCP(CC)CC.[Au+]` [Auranofin, 3,4,5-triacetyloxy-6-(acetyloxymethyl) oxane-2-thiolate; triethylphosphanium], for which, in experiment [1], the “sensitivity of Keap1 wildtype cells to NEAA depletion under oxidant treatment” value (“sensitivity of Keap1 wildtype cells” below) is given as “sensitized to NEAA depletion”. Turning to `CCCCS(=N)(=O)CCC(N)C(=O)O` [BSO, L-buthionine-sulfoximine], in experiment [1], the “sensitivity of Keap1 wildtype cells” value is given as “sensitized to NEAA depletion”.

Take `COC(=O)/C=C/C(=O)OC` [DMF, di-methyl fumarate]: the “sensitivity of Keap1 wildtype cells” value in experiment [1] is “sensitized to NEAA depletion”. For `CC(=O)N[C@@H](CS)C(=O)O` [NAC, N-acetyl-L-cysteine], the “rescue of cell growth under serine deprived conditions by supplementation” value (shortened to “rescue of cell growth”) in experiment [1] (Keap1 mutant cells) is on record as “did not rescue cell growth”. For the same molecule, the “G6PD KO rescue (colony formation)” value in experiment [2] is “No rescue”. Take `Cc1c(C)c2c(c(C)c1O)CCC(C)(C(=O)O)O2` (stereo not drawn) [Trolox]: the “rescue of cell growth” value in experiment [1] (Keap1 mutant cells) was “did not rescue cell growth”. Besides, the “G6PD KO rescue (colony formation)” value in experiment [2] is on record as “No rescue”. As to `O=C(O)CCC(=O)C(=O)O` [a-KG], in experiment [2], the “G6PD KO rescue (colony formation)” value was “can rescue G6PD KO cells; also recorded: Completely rescue”. With `C[C@H](N)C(=O)O` [alanine], the “proliferation on alanine supplementation” value in experiment [1] (Keap1 mutant cells, RPMI 10% dialyzed FBS, FIG. 2D) is on record as “increase in cancer cell proliferation”. Consider `O=CO` [formate], for which, in experiment [1] (Keap1 mutant cells), the “rescue of cell growth” value is “complete rescue of cell growth”.

`N[C@@H](CCC(=O)O)C(=O)O` [glutamate]: in experiment [3] (Keap1 mutant cells, 500 nM Erastin or 6 mM glutamate, FIG. 6B, 6C), the intracellular glutamate levels result was “significantly increased intracellular glutamate levels”. In experiment [3] (serine depleted conditions, 250 nM CB-839 or 6 mM glutamate, FIG. 7E), the “serine and glycine synthesis from [U^13C]-D glucose” value was “increase in both serine and glycine synthesis”. For the same molecule, in experiment [2], the “G6PD KO rescue (colony formation)” value was “can rescue G6PD KO cells; also recorded: Completely rescue”. On to `C=CC1=C(C)c2cc3[n-]c(cc4[n-]c(cc5nc(cc1n2)C(C)=C5C=C)c(C)c4CCC(=O)O)c(CCC(=O)O)c3C.[Fe+2]` [heme/hemin], for which the “rescue of growth defects after shRNA knockdown of Alas1” value in the experiment on KP or KPK cells (KP/KPK cells, doxycycline inducible shRNA, FIG. 37B) was “completely rescues any growth defects”. Further, in the experiment on KP or KPK cells (Keap1-mutant (KPK) vs KP cells with guide RNAs against Alas1, FIG. 36A), the “exogenous heme needed to rescue growth” value is on record as “require higher levels of exogenous heme to rescue growth”. Besides, in the experiment with KPK cells, the Alas1 protein level entry is recorded as “decrease Alas1” and the Hmox1 protein level result was “increase Hmox1”. As for `Cc1cn([C@H]2C[C@H](O)[C@@H](CO)O2)c(=O)[nH]c1=O` [thymidine], in experiment [1] (Keap1 mutant cells), the “rescue of cell growth” value is reported as “complete rescue of cell growth”.
